Where two headings read alike, the source gives them in different places.

Assay [1] relates to Prevotella intermedia (DSM 20706, ATCC25611). Description: Minimum inhibitory concentration (MIC), DIN 58940-8 micro dilution method. The format is cell-based. To be noted: for MIC: Prevotella intermedia. The method, then: (§1) MIC data were evaluated based on DIN 58940-8 micro dilution method. For the experiments three relevant bacteria occurring in the oral biofilm were selected: Streptococcus mutans (DSM 20523, ATCC 25175), Porphyromonas gingivalis (DSM 20709, ATCC33277), and Prevotella intermedia (DSM 20706, ATCC25611).
(§2) All test organisms were cultivated in suitable complex medium and under anaerobic and/or microaerophilic conditions. Every test substance was applied as technical triplicate on a 96-microtiter plate in a total volume of 300 μL per well. The inoculum was directly transferred from a glycerin stock solution or from a freshly prepared preculture. Therefore 15 mL reagent tubes were filled with specific complex growth medium and inoculated with skim milk stocks of single strains. The incubation was done at 37° C. up to 48 h until an OD620>0.1-1.0. Suspensions were controlled microscopically. In both cases the bacteria were transferred and diluted to fresh complex medium on a 96 well plate.
(§3) Test substances were either the pure materials or mixtures. The mixtures contain a cooling compound and an aroma component according to claims. Further these effective building blocks can be included in an aroma composition. Therefore, nature identical (synthetic) bases (base nature identical A/B) and/or natural basic formulations (base natural A/B) can be added.
(§4) The mixtures contained either Carvacrol (synthetic material) or the natural oregano oil with a typical Carvacrol content in the range of 50-80%.
(§5) Test substances were 100-fold solved in dimethyl sulfoxide (DMSO) and diluted directly on the 96 well plate. As […] farnesol and/or triclosan were applied in appropriate concentrations from 1 to 100 ppm. An untreated medium control was applied as growth control. The incubation of the test plates was done for 16-24 h at 37° C. At the end of the experiment, growth was determined photometrically by detecting OD620 values using Sunrise Photometer (TECAN, Austria). Mean values of triplicates were calculated and normalized with blank values (growth medium with or without test substances). The growths of treated wells were evaluated in relation to the growth control. Minimum inhibition concentrations (MIC) were defined as minimal concentration (in ppm) that causes a complete inhibition of bacterial growth.
(§6) Synergies were calculated using the following formula. The formula can be modified according to the number of components per mixture. MIC stands for minimum inhibitory concentration with the dimension of parts per million [ppm].
(§7) [formula] • MICmix=MIC value of mixture [ppm] • PA=Percentage of component A [%] • MIC A=MIC value of component A [ppm] • PB=Percentage of component B [%] • MIC B=MIC value of component B [ppm] A synergism is given if the resulting value is below 1.

For assay [2], the system named is Streptococcus mutans (DSM 20523, ATCC 25175). Described as above. The format is cell-based. To be noted: for MIC: Streptococcus mutans. The method, then: as §1, §2, §3, §4, §5, §6, §7
The test system of assay [3] is Porphyromonas gingivalis (DSM 20709, ATCC33277). The description is as above. The format is cell-based. The conditions noted are these: for MIC: Porphyromonas gingivalis. The method, then:
as §1, §2, §3, §4, §5, §6, §7

The test system of another assay is oral biofilm. In words: Ex vivo biofilm model (Calgary Biofilm Device, FDA hydrolysis). The format is cell-based, human. The conditions noted are these: compared to untreated control biofilm (100%); treatment 4 times within 2 days for 2 min at 37° C. As to the method: The experiment was developed following the method described in WO2018/033211 and Kistler et al (Kistler et al. 2015).
Up to 50 subjects were recruited for saliva donation. Participants were between 18 and 65 years old and medically healthy. Subjects who had taken antibiotics, ate antimicrobial food such as garlic within last 24 h and/or had suffer from any systemic conditions that may affected their immune or inflammatory status, were excluded from the study. Fresh morning saliva from all donors were selected and pooled. All volunteers were asked to refrain from drinking, eating, or brushing their teeth bevor donating by expectoration into sterile universal tubes.
The Calgary Biofilm Device (CBD) was originally developed for medical usage. It is commercially available as MBEC (Minimum Biofilm Eradication Concentration) Biofilm Inoculator and it is suitable as a basis for biofilm research (Kistler et al. 2015; Ceri et al. 1999). […]
Stock solutions of all test substances were prepared in dimethylsulfoxide (DMSO). […] At the end the pegs were washed again, and microbial activity was quantified photometrically by fluorescein diacetate (FDA) hydrolysis. FDA is converted into fluorescein by protease, lipase, and esterase activities in the biofilm, thus the quantification of fluorescein represents the activity of the biofilm.

Setting [4] is: S. mutans, component alone, read-out: MIC B (MIC value of component B).
The mark [5] stands for this setting: read-out: MIC A (MIC value of component A).

`CC(C)[C@@H]1CC[C@@H](C)C[C@H]1OC(=O)[C@@H](C)O` (stereo in doubt) [Menthyl lactate]: the MIC (as a rule, the lowest concentration found to suppress growth) in assay [1] (P. intermedia, component alone, read-out: MIC B (MIC value of component B)) turned out to be 125 µg/mL; in assay [2] (setting [4]), 250 µg/mL; in assay [3] (P. gingivalis, component alone, read-out: MIC B (MIC value of component B)) it was 125 µg/mL.

Take `CC(C)[C@@H]1CC[C@@H](C)C[C@H]1OCC(O)CO` (stereo partly drawn) [3-(−)-Menthoxy)propane-1,2-diol]: in assay [2] (setting [4]), the MIC worked out at 500 µg/mL.

For `Cc1ccc(C(C)C)cc1O` [Carvacrol], the MIC in assay [1] (setting [5]), in assay [2] (setting [5]) and in assay [3] (setting [5]) was 250 µg/mL each time. Moreover, the “relative biofilm activity after treatment (FIG. 1)” value in the assay on oral biofilm is reported as “concentration dependent oral biofilm reduction”.

For the compound `CC1CCC(C(C)C)C2(C1)OCC(CO)O2` [D,L-Menthone glyceryl ketal], the “MIC B (MIC value of component B)” value was 250 ppm in assay [1] (P. intermedia, component alone); 500 ppm in assay [2] (S. mutans, component alone); 250 ppm in assay [3] (P. gingivalis, component alone).

Turning to `CC(O)COC(=O)O[C@@H]1C[C@H](C)CC[C@H]1C(C)C` (stereo partly shown) [Menthyl propylene glycol carbonate], the “MIC B (MIC value of component B)” value in assay [2] (S. mutans, component alone) was 125 ppm.

(−)-Menthyl propylene glycol carbonate: in assay [3] (P. gingivalis, component alone), the “MIC B (MIC value of component B)” value amounted to 125 ppm.

The values above are taken from US20250352444A1, “Antimicrobial mixtures” (Symrise AG, priority 2022, published 2025).
